Laboratory results published in patent US20200179369A1, “TREATMENT OF DIABETIC NEPHROPATHY” (TAKEDA GMBH, priority 2015, published 2020).

What was measured:
[1] = test system: uninephrectomized db/db mice; test: Diabetic nephropathy in uninephrectomized db/db mice, 8 week treatment starting 12 weeks after the uninephrectomy; assay type: in vivo; conditions: 8 weeks starting 12 weeks after uninephrectomy
Protocol: The experimental protocol is similar to the experimental protocol described above with the exception that the 8 week treatment with Compound A or irbesartan was started not already at 4 weeks after the uninephrectomy, but only 12 weeks after the uninephrectomy (i.e. when the increase of urinary albumin/creatinine ratio (UACR) is already in a much more advanced stage). Roflumilast was not used as a comparator in this experiment.
Compound A (1, 3 and 10 mg/kg, QD) and irbesartan (50 and 100 mg/kg, QD) were suspended in 0.5% methyl cellulose solution and orally administered to mice for 8 weeks starting 12 weeks after the uninephrectomy.
For evaluation of the effects of Compound A, statistical differences between vehicle- and Compound A treated groups were analyzed with one-tailed Williams' test for GHB, PG and BW and one-tailed Shirley-Williams' test for UACR. For irbesartan, statistical differences between vehicle- and irbesartan treated groups were analyzed with one-tailed Williams' test for UACR, GHb, PG and BW. The P-values less than 0.025 were considered statistically significant in one-tailed Williams' test or one-tailed Shirley-Williams' test.

[2] = test system: type 1 collagen α1 chain mRNA; test: TGF-β-induced mRNA expression of type 1 collagen α1 chain in human mesangial cells; assay type: cell-based; conditions: in the presence of forskolin 1 μM, TGF-β 3 ng/mL, 24 h
Protocol: (§1) Human mesangial cells were purchased from DS Pharma Biomedical (US). Compound A was obtained from Takeda GmbH, Konstanz, Germany. Forskolin and dimethyl sulfoxide (DMSO) were purchased from Wako Pure Chemical Industries, Ltd (Japan). Recombinant human TGF-β was purchased from R&D systems (USA).
(§2) On day 0, human mesangial cells were seeded at a cell density of 2×10^5 cells/well in CSC complete medium (Cell Systems, USA) on type 1 collagen-coated 24-well plate (AGC TECHNO GLASS Co. Ltd., Japan) in an atmosphere of 95% air and 5% CO2 at 37° C. On day 1, the cells were serum starved with CMC medium which is not containing serum and growth factors. On day 2, Compound A at final concentrations of 0.001, 0.01, 0.1, 1 and 10 μM or DMSO (control) was added to the culture medium. […] For the measurement of mRNA levels of type 1 collagen α1 chain and fibronectin, total RNA isolated at 24 hours after forskolin/TGF-β stimulation was used. mRNA expression levels were measured by quantitative real-time RT-PCR methods with TaqMan gene expression master mix and ABI PRISM 9700 (Life Technologies, USA) with target mRNA specific primer and probe sets [Human connective tissue growth factor (Hs1026927_g1); Human plasminogen activator inhibitor-1 (Hs00167155_m1); Human type 1 collagenal chain (Hs00164004_m1); Human fibronectin (HS00365052_m1); Humanglyceraldehyde 3-phosphate dehydrogenase (HS2758991_g1)]. […]

[3] = test system: plasminogen activator inhibitor-1 (PAI-1) mRNA; test: TGF-β-induced mRNA expression of plasminogen activator inhibitor-1 (PAI-1) in human mesangial cells; assay type: cell-based; conditions: 0.001-10 μM with forskolin 1 μM and TGF-β 3 ng/mL, 6 h
Protocol: as §1, §2

[4] = test system: connective tissue growth factor (CTGF) mRNA; test: TGF-β-induced mRNA expression of connective tissue growth factor (CTGF) in human mesangial cells; assay type: cell-based; conditions: 0.001-10 μM with forskolin 1 μM and TGF-β 3 ng/mL, 6 h
Protocol: as §1, §2

[5] = test system: fibronectin mRNA; test: TGF-β-induced mRNA expression of fibronectin in human mesangial cells; assay type: cell-based; conditions: in the presence of forskolin 1 μM, TGF-β 3 ng/mL, 24 h
Protocol: as §1, §2

[6] = test system: female db/db mice; test: HbA1c, 4 weeks treatment in female db/db mice; assay type: in vivo; conditions: 28 days, vehicle 9.06%
Protocol: Female db/db mice were purchased from Taconic (Lille Skensved, Denmark) at 5-6 weeks of age and were maintained under standard conditions (5 animals/cage; 12 h light-dark cycle; room temperature of 22±2° C.; relative humidity of 60±15%). All mice had free access to water and standard chow (Provimi Kliba, Kaiseraugst, Switzerland). Four days upon arrival animals were randomized based on body weight and levels of glycated hemoglobin 1c (HbA1c). At 7 weeks of age, animals were treated daily by oral gavage with vehicle (4% methylcellulose) or with Compound A (composed in aqueous 4% methylcellulose) using doses of 1, 3 and 10 mg/kg s.i.d. (doses related to free base). The required dose was applied in a volume of 10 ml/kg body weight. Each dose group consisted of 10 animals. At the end of the treatment period plasma samples were isolated for determination of HbA1c levels. All experimental procedures were conducted according to the German Animal Protection Law.
HbA1c was analyzed from tail-tip-blood (HbA1c determination before treatment) as well as from blood collected from the retro-orbital venous plexus (HbA1c determination after 4 weeks treatment) using the Hemoglobin A1c Test (Siemens, Bad Nauheim, Germany).
Values are presented as means ±SEM. Statistical differences were determined using one-way-ANOVA followed by a post-hoc analysis with Dunnet's correction (GraphPad Prism).
Definition of significance: n.s.=not significant (p>0.05) • *, **, ***=p<0.05, <0.01, <0.001

SMILES: CCOc1cc2c(cc1OC)C(c1ccc(=O)n(C)c1)=N[C@@H]1CC[C@@H](O)C[C@H]21 [Compound A, 5-((2R,4aR,10bR)-9-Ethoxy-2-hydroxy-8-methoxy-1,2,3,4,4a,10b-hexahydro-phenanthridin-6-yl)1-methyl-1H-pyridin-2-one]
- effect on urinary albumin/creatinine ratio (UACR) ([1]; 1 mg/kg QD oral): suppressed the increase of UACR
- effect on urinary albumin/creatinine ratio (UACR) ([1]; 3 mg/kg QD oral): reduced the UACR in the 3 mg/kg and 10 mg/kg group below the value at the beginning of the 8 weeks treatment period
- effect on glucose plasma levels (PG) ([1]; 10 mg/kg QD oral): statistical significant effect
- effect on glycosylated hemoglobin (GHb) ([1]; 10 mg/kg QD oral): statistical significant effect
- effect on urinary albumin/creatinine ratio (UACR) ([1]; 10 mg/kg QD oral): reduced the UACR in the 3 mg/kg and 10 mg/kg group below the value at the beginning of the 8 weeks treatment period
- effect on body weight (BW) ([1]; 1, 3 and 10 mg/kg QD oral): Neither Compound A nor Irbesartan affected the body weight
- effect on glucose plasma levels (PG) ([1]; 1, 3 and 10 mg/kg QD oral): reduced GHb and PG in a dose-dependant manner
- effect on glycosylated hemoglobin (GHb) ([1]; 1, 3 and 10 mg/kg QD oral): reduced GHb and PG in a dose-dependant manner
- concentration at which the inhibitory effect on mRNA expression of type 1 collagen α1 chain was further enhanced [2]: ≥ 0.1 µM
- effect on TGF-β-induced mRNA expression of PAI-1 [3]: further suppressed by the treatment with Compound A in a concentration-dependent manner
- effect on TGF-β-induced mRNA expression of CTGF [4]: further suppressed by the treatment with Compound A in a concentration-dependent manner
- concentration at which the inhibitory effect on mRNA expression of fibronectin was further enhanced [5]: ≥ 0.1 µM
- mean HbA1c ([6]; 1 mg/kg oral s.i.d.): 7.27%
- mean HbA1c ([6]; 3 mg/kg oral s.i.d.): 7.06%
- mean HbA1c ([6]; 10 mg/kg oral s.i.d.): 6.16%
